Measured values: patent publication US20200199102A1, “COMPOUNDS THAT PARTICIPATE IN COOPERATIVE BINDING AND USES THEREOF” (Revolution Medicines, Inc., priority 2017, published 2020)
pIC50: −log10 of the molar value. Where a SMILES comes first, the peptide text is derived from it. [ ]: non-standard residue; d: D form. MeBmt = C/C=C/C[C@@H](C)[C@@H](O)[C@H](NC)C(=O)O; NMeF = CN[C@@H](Cc1ccccc1)C(=O)O; NMeI = CC[C@H](C)[C@H](NC)C(=O)O; NMeT = CN[C@H](C(=O)O)[C@@H](C)O; NMeL = CN[C@@H](CC(C)C)C(=O)O; NMeV = CN[C@H](C(=O)O)C(C)C; Abu = CC[C@H](N)C(=O)O; Sar = CNCC(=O)O

Target: T1, Cyclophilin A (Homo sapiens, UniProt P62937)
T1 construct: made in house
Assay: AlphaLISA inhibition of binding of biotinylated Cyclosporin A to FLAG tagged Cyclophilin A
Details: for % signal: AlphaLISA signal; for % signal / % inhibition of CsA binding to Cyclophilin A: test concentration not given; for pIC50: read-out: IC50 value of CsA binding to Cyclophilin A
Source text: The binding of compounds of the invention to Cyclophilin A can be determined using the following protocol.
This protocol utilizes Perkin Elmers AlphaLISA technology platform to detect cyclosporine analogues by measuring the inhibition of binding of biotinylated Cyclosporin A to FLAG tagged Cyclophilin A.
10×TBST Buffer (Boston BioProducts IBB-181), Biotinylated Cyclosporin A (in-house), FLAG tagged Cyclophilin A (in-house); anti-FLAG Donor beads (PerkinElmer AS103) and Streptavidin Acceptor beads (PerkinElmer AL125); Compounds in DMSO (in-house), Cyclosporin A (LC Labs Cat #C-6000).
Add 20 uL of 6 nM Biotinylated CsA working stock to each well of the 96-well plate. Add 1 uL of test compound (100% DMSO) to each well of the plate using the Janus MTD head and P20 tips (except control wells). Add 1 uL of DMSO to negative control wells and 1 uL of 500 uM Cyclosporin A solution to positive control wells. In the dark, add 20 uL of combined Donor/Acceptor beads to each well. Incubate in the dark for 30 minutes at room temperature. In the dark, add 10 uL of 25 nM Flag tagged CypA working stock to each well. Incubate in the dark for 60 minutes at room temperature. Protect plate from light until reading on Biotek Synergy2 Plate Reader; Alphalisa 96-well protocol (680 excitation/615 emission).

T1 sequence (P62937 whole entry, species assumed): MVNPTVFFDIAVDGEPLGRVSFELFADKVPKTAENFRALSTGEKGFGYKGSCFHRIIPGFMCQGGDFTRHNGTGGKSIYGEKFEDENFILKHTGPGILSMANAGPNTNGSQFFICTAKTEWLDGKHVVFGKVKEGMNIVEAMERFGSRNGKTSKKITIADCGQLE

C/C=C/C[C@@H](C)[C@@H](O)[C@H]1C(=O)N[C@@H](CC)C(=O)N(C)CC(=O)N(C)[C@@H](Cc2ccccc2)C(=O)N[C@@H](C)C(=O)N(C)CC(=O)N[C@@H](C)C(=O)N[C@H](C)C(=O)N(C)[C@@H](CC(C)C)C(=O)N(C)[C@@H](CC(C)C)C(=O)N(C)[C@@H](C(C)C)C(=O)N1C [Compound C20] (cyclo([MeBmt][Abu][Sar][NMeF]A[Sar]A[dA][NMeL][NMeL][NMeV]))
% signal: 2.77% | pIC50: > 5.70 | % inhibition of CsA binding to Cyclophilin A: 97.23%

C/C=C/C[C@@H](C)[C@@H](O)[C@H]1C(=O)N[C@@H](CC)C(=O)N(C)CC(=O)N(C)CC(=O)N[C@@H](C)C(=O)N(C)CC(=O)N[C@@H](C)C(=O)N[C@H](C)C(=O)N(C)[C@@H](CC(C)C)C(=O)N(C)[C@@H](CC(C)C)C(=O)N(C)[C@@H](C(C)C)C(=O)N1C [Compound C21] (cyclo([MeBmt][Abu][Sar][Sar]A[Sar]A[dA][NMeL][NMeL][NMeV]))
% signal: 31.08% | pIC50: > 5.70 | % inhibition of CsA binding to Cyclophilin A: 68.92%

C/C=C/C[C@@H](C)[C@@H](O)[C@H]1C(=O)N[C@@H](CC)C(=O)N(C)CC(=O)N(C)[C@@H](CC(C)C)C(=O)N[C@@H](C)C(=O)N(C)CC(=O)N[C@@H](C)C(=O)N[C@H](C)C(=O)N(C)[C@@H](CC(C)C)C(=O)N(C)[C@@H](CC(C)C)C(=O)N(C)[C@@H](C(C)C)C(=O)N1C [Compound C22] (cyclo([MeBmt][Abu][Sar][NMeL]A[Sar]A[dA][NMeL][NMeL][NMeV]))
% signal: 5.97% | pIC50: > 5.70 | % inhibition of CsA binding to Cyclophilin A: 94.03%

C/C=C/C[C@@H](C)[C@@H](O)[C@H]1C(=O)N[C@@H](CC)C(=O)N(C)CC(=O)N(C)[C@@H]([C@@H](C)O)C(=O)N[C@@H](C)C(=O)N(C)CC(=O)N[C@@H](C)C(=O)N[C@H](C)C(=O)N(C)[C@@H](CC(C)C)C(=O)N(C)[C@@H](CC(C)C)C(=O)N(C)[C@@H](C(C)C)C(=O)N1C [Compound C23] (cyclo([MeBmt][Abu][Sar][NMeT]A[Sar]A[dA][NMeL][NMeL][NMeV]))
% signal: 1.28% | pIC50: > 5.70 | % inhibition of CsA binding to Cyclophilin A: 98.72%

C/C=C/C[C@@H](C)[C@@H](O)[C@H]1C(=O)N[C@@H](CC)C(=O)N(C)CC(=O)N(C)[C@@H]([C@@H](C)CC)C(=O)N[C@@H](C(C)C)C(=O)N(C)CC(=O)N[C@@H](C)C(=O)N[C@H](C)C(=O)N(C)[C@@H](CC(C)C)C(=O)N(C)[C@@H](CC(C)C)C(=O)N(C)[C@@H](C(C)C)C(=O)N1C [Compound C25] (cyclo([MeBmt][Abu][Sar][NMeI]V[Sar]A[dA][NMeL][NMeL][NMeV]))
% signal: 0.37% | pIC50: > 5.70

C/C=C/C[C@@H](C)[C@@H](O)[C@H]1C(=O)N[C@@H](CC)C(=O)N(C)CC(=O)N(C)[C@@H](Cc2ccccc2)C(=O)N[C@@H](C(C)C)C(=O)N(C)CC(=O)N[C@@H](C)C(=O)N[C@H](C)C(=O)N(C)[C@@H](CC(C)C)C(=O)N(C)[C@@H](CC(C)C)C(=O)N(C)[C@@H](C(C)C)C(=O)N1C [Compound C27] (cyclo([MeBmt][Abu][Sar][NMeF]V[Sar]A[dA][NMeL][NMeL][NMeV]))
% signal: 5.27% | pIC50: > 5.70 | % inhibition of CsA binding to Cyclophilin A: 94.73%

C/C=C/C[C@@H](C)[C@@H](O)[C@H]1C(=O)N[C@@H](CC)C(=O)N(C)CC(=O)N(C)CC(=O)N[C@@H](C(C)C)C(=O)N(C)CC(=O)N[C@@H](C)C(=O)N[C@H](C)C(=O)N(C)[C@@H](CC(C)C)C(=O)N(C)[C@@H](CC(C)C)C(=O)N(C)[C@@H](C(C)C)C(=O)N1C [Compound C28] (cyclo([MeBmt][Abu][Sar][Sar]V[Sar]A[dA][NMeL][NMeL][NMeV]))
% signal: 1.06% | pIC50: > 5.70 | % inhibition of CsA binding to Cyclophilin A: 98.94%

C/C=C/C[C@@H](C)[C@@H](O)[C@H]1C(=O)N[C@@H](CC)C(=O)N(C)CC(=O)N(C)[C@@H](CC(C)C)C(=O)N[C@@H](C(C)C)C(=O)N(C)CC(=O)N[C@@H](C)C(=O)N[C@H](C)C(=O)N(C)[C@@H](CC(C)C)C(=O)N(C)[C@@H](CC(C)C)C(=O)N(C)[C@@H](C(C)C)C(=O)N1C [Compound C30]
% signal: 0.06% | pIC50: > 5.70 | % inhibition of CsA binding to Cyclophilin A: 99.94%
